Test results as given in patent US5185352A, “Alkoxy-4(1H)-pyridone derivatives, processes for the preparation thereof and pharmaceutical compositions containing them” (Goedecke Aktiengesellschaft, priority 1988, dated 1993).
Where a name gives a salt, the structure may show the parent alone.

biological target: calcium- and phospholipid-dependent protein kinase (PKC); test: Inhibition of the activity of protein kinase C (incorporation of P^32-labelled phosphate into histone H-1); type: biochemical; details: PKC enriched from rat brain; histone H-1 substrate; 5 min, 30° C.; pH 7.5
Source text: For the clarification of the inhibiting influence of compounds of formula I according to the present invention on the calcium- and phospholipid-dependent protein kinase (PKC), this enzyme activity was enriched from rat brain. Using the purification steps described in the literature (J. Biol. Chem., 260, 15718-15722/1985), in the case of a purification consisting of two steps, there was utilized the property of the enzyme to bind to cell membranes in the presence of calcium and to be dissolved off again by calcium chelators (EGTA). In the first enrichment step, there took place the binding of the PKC to membranes of the rat brain and in the second step on so-called inside-out vesicles or erythrocytes. After dissolving off from the erythrocyte membranes and rebuffering, the PKC preparation was present in 10 mM HEPES, 1 mM DTT, 0.1% PEG 20000, pH 7.5. Under these conditions, it could be stored at -70° C. for several months without loss of activity.
The activity of the enzyme was determined via the incorporation of P^32 -labelled phosphate into the protein histone H-1 (Sigma Type III) which can be phosphorylated by PKC.
The test thereby contains the following components: 50 mM HEPES-NaOH (pH 7.5), 5 mM magnesium chloride, 1 mM DTT, 4 μm. free calcium ions, 10 μMaTP, 1 μg phosphatidylserine, 0.2 μg 1,2-diolein, as well as 40 μg histone H-1 and optionally the test substance.
The batch is preincubated for 4 minutes at 30° C. and the reaction then started by the addition of 5 nM PKC. After incubating for 5 minutes at 30° C., the reaction is stopped with 10% TCA and the samples then filtered off. The phosphate incorporation is determined by Cerenkov counting in a scintillation counter. The kinase activity measured in the absence of the test substance was, in each case, taken as being 100% and the inhibiting action of the compounds of formula I referred thereto as percentages.

Structure (SMILES) | IC50 [nM]
CCCCCCCCCCCCCCCCCCOc1cn(Cc2ccc(OC)cc2)c(CNCCCN(C)C)cc1=O [Example 72, 2-[N-(3-Dimethylaminopropyl)aminomethyl]-1-(4-methoxybenzyl)-5-octadecyloxy-4(1H)-pyridone trihydrochloride monohydrate] | 3600
CCCCCCCCCCCCCCCCCCOc1cn(CC2CCCCC2)c(CNCCCN(C)C)cc1=O [Example 68, 1-Cyclohexylmethyl-2-[N-(3-dimethylaminopropyl)aminomethyl]-5-octadecyloxy-4(1H)-pyridone difumarate] | 1900
CCCCCCCCCCCCCCCCCCOc1cn(Cc2ccccc2)c(CNCCCCN)cc1=O [Example 77, 2-[N-(4-Aminobutyl)aminomethyl]-1-benzyl-5-octadecyloxy-4(1H)-pyridone trihydrochloride] | 2300
CCCCCCCCCCCCCCCCCCOc1cn(Cc2ccccc2)c(CN(C)CCN(C)C)cc1=O [Example 57, 1-Benzyl-2-[N-(2-dimethylaminoethyl)-N-methylaminomethyl]-5-octadecyloxy-4(1H)-pyridone trihydrochloride] | 1900
CCCCCCCCCCCCCCCCCCOc1cn(-c2ccc(OCc3ccccc3)cc2)c(CNCCCN(C)C)cc1=O [Example 79, 1-(4-Benzyloxyphenyl)-2-[N-(3-dimethylaminopropyl)aminomethyl]-5-octadecyloxy-4(1H)-pyridone] | 2200
CCCCCCCCCCCCCCCCCCOc1cn(Cc2ccc(C)cc2)c(CNCCCN(C)C)cc1=O [Example 76, 2-[N-(3-Dimethylaminopropyl)aminomethyl]-1-(4-methylbenzyl)-5-octadecyloxy-4(1H)-pyridone trihydrochloride hemihydrate] | 1900
CCCCCCCCCCCCCCCCCCOc1cn(CCC)c(CNCCCN(C)C)cc1=O [Example 59, 2-[N-(3-Dimethylaminopropyl)aminomethyl]-5-octadecyloxy-1-propyl-4(1H)-pyridone dioxalate] | 2900
CCCCCCCCCCCCCCCCCCOc1cn(CCCN(C)C)c(CO)cc1=O [Example 21, 1-(3-Dimethylaminopropyl)-2-hydroxymethyl-5-octadecyloxy-4(1H)-pyridone] | 2400
CCCCCCCCCCCCCCCCCCOc1cn(Cc2ccccc2)c(CN(C)C)cc1=O [Example 73, 1-Benzyl-2-dimethylaminomethyl-5-octadecyloxy-4(1H)-pyridone oxalate hemihydrate] | 4400
CCCCCCCCCCCCCCCCCCCCOc1cn(Cc2ccccc2)c(CNCCCN(C)C)cc1=O [Example 66, 1-Benzyl-2-[N-(3-dimethylaminopropyl)aminomethyl]-5-eicosanyloxy-4(1H)-pyridone dioxalate monohydrate] | 2500
CCCCCCCCCCCCCCCCCCOc1cn(C)c(CNCCCN(C)C)cc1=O [Example 56, 2-[N-(3-Dimethlaminopropyl)-aminomethyl]-1-methyl-5-octadecyloxy-4(1H)-pyridone trihydrochloride hemihydrate] | 2900
CCCCCCCCCCCCCCCCCCOc1cn(-c2ccc(O)cc2)c(CNCCCN(C)C)cc1=O [Example 85, 2-[N-(3-Dimethylaminopropyl)aminomethyl]-1-(4-hydroxyphenyl)-5-octadecyloxy-4(1H)-pyridone·trihydrochloride·0,5 H2 O] | 5800
CCCCCCCCCCCCCCCCCCOc1cn(Cc2ccccc2)c(CNCCCN)cc1=O [Example 61, 2-[N-(3-Aminopropyl)-aminomethyl]-1-benzyl-5-octadecyloxy-4(1H)-pyridone trihydrochloride] | 2100
CCCCCCCCCCCCCCCCCCOc1cn(Cc2ccc(O)cc2)c(CNCCCN(C)C)cc1=O [Example 84] | 3400
CCCCCCCCCCCCCCCCCCOc1cn(-c2ccc(OCc3ccccc3)cc2)c(CNCCCN(C)C)cc1=O [Example 80, 1-(4-Benzyloxyphenyl)-2-[N-(3-dimethylaminopropyl)aminomethyl]-5-octadecyloxy-4(1H)-pyridone·difumarate·2,5 H2 O] | 2600
CCCCCCCCCCCCCCOc1cn(Cc2ccccc2)c(CNCCCN(C)C)cc1=O [Example 65, 1-Benzyl-2-[N-(3-dimethylaminopropyl)aminomethyl]-5-tetradecyloxy-4(1H)-pyridone dioxalate monohydrate] | 6500
CCCCCCCCCCCCCCCCCCOc1cn(-c2ccccc2)c(CNCCCN(C)C)cc1=O [Example 70, 2-[N-(3-Dimethylaminopropyl)aminomethyl]-5-octadecyloxy-1-phenyl-4(1H)-pyridone] | 2200
CCCCCCCCCCCCCCCCCCOc1cn(Cc2ccccc2OC)c(CNCCCN(C)C)cc1=O [Example 74, 2-[N-(3-Dimethylaminopropyl)aminomethyl]-1-(2-methoxybenzyl)-5-octadecyloxy-4(1H)-pyridone difumarate] | 2100

The remaining lines, values ahead:

IC50 [nM] | Structure (SMILES)
4300 | CCCCCCCCCCOc1cn(Cc2ccccc2)c(CN2CCN(CCc3ccccc3)CC2)cc1=O [Example 95, 1-[(1-Benzyl-5-decyloxy-4(1H)-pyridone-2-yl)-methyl]4-(2-phenylethyl)piperazine·dihydrochloride]
4400 | CCCCCCCCCCCCCCCCCCOc1cn(Cc2ccccc2)c(CN2CCN(C(C)c3ccccc3)CC2)cc1=O (racemic) [Example 97, (±)-1-[(1-Benzyl-5-octadecyloxy-4(1H)-pyridone-2-yl)methyl]-4-(1-phenylethyl)piperazine·trihydrochloride 3/4 H2 O]
5500 | CCCCCCCCCCCCCCCCCCOc1cn(Cc2ccccc2)c(CN2CCN(Cc3ccccc3)CC2)cc1=O [Example 93, 1-[(1-Benzyl-5-octadecyloxy-4(1H)-pyridone-2-yl)methyl]-4-benzylpiperazine·dioxlate·1/2 H2 O]
2000 | CCCCCCCCCCCCCCCCCCOc1cn(Cc2ccccc2)c(CN2CCNCC2C)cc1=O (racemic) [Example 102, (±)-1-[(1-Benzyl-5-octadecyloxy-4(1H)-pyridon-2-yl)methyl]-2-methylpiperazine fumarate]
2700 | CCCCCCCCCCCCCCCCCCOc1cn(C(C)c2ccccc2)c(CN2CCN(Cc3ccccc3)CC2)cc1=O (single isomer, unassigned; (+)) [Example 100, (+)-1-[(5-Octadecyloxy-1-(1-phenylethyl)-4(1H)-pyridone-2-yl)-methyl]-4-benzylpiperazine]
2000 | CCCCCCCCCCCCCCCCCCOc1cn(CCC)c(COCCCN(C)C)cc1=O [Example 105, 2-(3-Dimethylaminopropoxymethyl)-5-octadecyloxy-1-propyl-4(1H)-pyridone dihydrochloride 3/4 hydrate]
9000 | CCCCCCCCCCCCCCCCCCOc1cn(Cc2ccccc2)c(CCC(=O)OC)cc1=O [Example 114, Methyl 3-[1-benzyl-5-octadecyloxy-4(1H)-pyridon-2-yl]-propionate]
2900 | CCCCCCCCCCCCCCCCCCOc1cn(CC2CCCCC2)c(COCCCN(C)C)cc1=O [Example 108, 1-Cyclohexylmethyl-2-(3-dimethylaminopropoxymethyl)-5-octadecyloxy-4(1H)-pyridone oxalate]
5400 | CCCCCCCCCCCCCCCCCCOc1cn(C(C)c2ccccc2)c(CN2CCN(Cc3ccccc3)CC2)cc1=O (racemic) [Example 98, (±)-1-[(5-Octadecyloxy-1-(1-phenylethyl)-4(1H)-pyridone-2-yl)-methyl]-4-benzylpiperazine]
2600 | CCCCCCCCCCCCCCCCCCOc1cn(Cc2ccc(Cl)cc2)c(COCCCN(C)C)cc1=O [Example 109, 1-(4-Chlorobenzyl)-2-(3-dimethylaminopropoxymethyl)-5-octadecyloxy-4(1H)-pyridone dihydrochloride 2.5 hydrate]
1800 | CCCCCCCCCCCCCCCCCCOc1cn(Cc2ccccc2)c(CN(C)CCCN(C)C)cc1=O [Example 89, 1-Benzyl-2-[N-(3-dimethylaminopropyl)-N-methylaminomethyl]-5-octadecyloxy-4(1H)-pyridone trihydrochloride]
5200 | CCCCCCCCCCCCCCCCCCOc1cn(C(C)c2ccccc2)c(CN2CCN(Cc3ccccc3)CC2)cc1=O (single isomer, unassigned; (-)) [Example 99, (-)-1-[(5-Octadecyloxy-1-(1-phenylethyl)-4(1H)-pyridone-2-yl)-methyl]-4-benzylpiperazine]
4000 | CCCCCCCCCCCCCCCCCCOc1cn(Cc2ccccc2)c(COCCCN(C)C)cc1=O [Example 103, 1-Benzyl-2-(3-dimethylaminopropoxymethyl)-5-octadecyloxy-4(1H)-pyridone dihydrochloride]
2900 | CCCCCCCCCCCCCCCCCCOc1cn(Cc2ccc(OC)cc2)c(COCCCN(C)C)cc1=O [Example 107, 2-(3-Dimethylaminopropoxymethyl)-1-(4-methoxybenzyl)-5-octadecyloxy-4(1H)-pyridone dihydrochloride 1/4 hydrate]
9000 | CCCCCCCCCCCCCCCCCCOc1cn(Cc2ccccc2)c(CCC(N)=O)cc1=O [Example 116, 3-[1-benzyl-5-octadecyloxy-4(1H)-pyridon-2-yl]-propionic acid amide]
